Reference: patent publication EP4752149A1, “OXYGEN-CONTAINING FUSED TRICYCLIC DERIVATIVE, AND PREPARATION METHOD THEREFOR AND USE THEREOF” (Tuojie Biotech (Shanghai) Co., Ltd., priority 2023, dated 2025)

Legend:
Assay type in all cases: cell-based
MCF-7/Palbo-R = assay: Inhibitory activity against CDK4/6 inhibitor-resistant human breast cancer cells (MCF-7 palbociclib-resistant cell line), cell viability; conditions: 5 days with compound, CellTiter-Glo cell viability
Procedure: MCF-7/Palbo-R cell source: MCF7 cells (Nanjing Cobioer Biosciences Co., Ltd.) were treated with 1 µM palbociclib for a long time, and drug resistance was induced.
The palbociclib-resistant breast cancer cell line MCF-7/Palbo-R was cultured using a DMEM culture medium containing 10% FBS in a cell incubator (37 °C, 5% CO2). On day one, the cells were plated in a 384-well plate at a cell concentration of 800 cells/well and cultured overnight in an incubator. On day two, the cells were treated with compounds. The highest compound concentration was 10 µM and was diluted 3-fold to obtain 9 concentrations, and the final concentration of DMSO was 0.2%. After the cells were cultured in the incubator for another 5 days, the cell viability was tested using a CellTiter-Glo luminescent cell viability assay kit; the testing method was consistent with the method provided by the kit. Data were processed using XLfit, and IC50 was calculated.
The inhibition rates (IR) of the test compounds were calculated using the following formula: IR (%) = (1 - (RLU compound - RLU blank control) / (RLU vehicle control-RLU blank control)) × 100%. Table 16. The IC50 (nM) of a compound of the present disclosure against MCF-7/Palbo-R

[1] = tested on: Ovarian cancer cells (OVCAR3); assay: Inhibitory activity against ovarian cancer cells (OVCAR3), CTG cell viability; conditions: Homo sapiens, OVCAR-3, 168 h, 7 days with compound
Procedure: Ovarian cancer cells (OVCAR3) were cultured using an RPMI 1640 culture medium containing 10% FBS in a cell incubator (37 °C, 5% CO2). On day one, the cells were plated in a 384-well plate at a cell concentration of 800 cells/well and cultured overnight in an incubator. On day two, the cells were treated with compounds. The highest compound concentration was 10 µM and was diluted 3-fold to obtain 9 concentrations, and the final concentration of DMSO was 0.1%. After the cells were cultured in the incubator for another 7 days, the cell viability was tested using a CTG Cell Viability Detection Reagent (MCE); the testing method was consistent with the method provided by the kit. Data were processed using GraphPad Prism 8, and IC50 was calculated. [formula] X: the logarithm of the compound concentration; Y: inhibition%. Table 2. The IC50 (nM) of compounds of the present disclosure against OVCAR3

[2] = tested on: Triple-negative breast cancer cells (HCC1806); assay: Inhibitory activity against triple-negative breast cancer cells (HCC1806), CTG cell viability; conditions: 7 days with compound
Procedure: Triple-negative breast cancer cells (HCC1806, Nanjing Cobioer Biosciences Co., Ltd.) were cultured using an RPMI 1640 culture medium containing 10% FBS in a cell incubator (37 °C, 5% CO2). On day one, the cells were plated in a 384-well plate at a cell concentration of 200 cells/well and cultured overnight in an incubator. On day two, the cells were treated with compounds. The highest compound concentration was 10 µM and was diluted 3-fold to obtain 9 concentrations, and the final concentration of DMSO was 0.2%. After the cells were cultured in the incubator for another 7 days, the cell viability was tested using a CTG Cell Viability Detection Reagent (MCE); the testing method was consistent with the method provided by the kit. Data were processed using XLfit, and IC50 was calculated. [formula] X: the logarithm of the compound concentration; Y: inhibition%. Table 4. The IC50 (nM) of compounds of the present disclosure against HCC1806

[3] = tested on: Human breast cancer cells (MDA-MB-231); assay: Inhibitory activity against human breast cancer cells (MDA-MB-231), CTG cell viability; conditions: 7 days with compound
Procedure: (§1) Human breast cancer cells (MDA-MB-231) were cultured using a DMEM culture medium containing 10% FBS in a cell incubator (37 °C, 5% CO2). On day one, the cells were plated in a 384-well plate at a cell concentration of 600 cells/well and cultured overnight in an incubator. On day two, the cells were treated with compounds. The highest compound concentration was 10 µM and was diluted 3-fold to obtain 9 concentrations, and the final concentration of DMSO was 0.2%. After the cells were cultured in the incubator for another 7 days, the cell viability was tested using a CTG Cell Viability Detection Reagent; the testing method was consistent with the method provided by the kit. Data were processed using XLFit, and IC50 was calculated. [formula] X: the logarithm of the compound concentration; Y: % inhibition. Table 8. The IC50 (nM) of a compound of the present disclosure against MDA-MB-231

[4] = tested on: Human non-small cell lung cancer cells (A549); assay: Inhibitory activity against human non-small cell lung cancer cells (A549), CTG cell viability; conditions: 5 days with compound
Procedure: (§2) Human non-small cell lung cancer cells (A549) were cultured using an F12K culture medium containing 10% FBS in a cell incubator (37 °C, 5% CO2). On day one, the cells were plated in a 384-well plate at a cell concentration of 300 cells/well and cultured overnight in an incubator. On day two, the cells were treated with compounds. The highest compound concentration was 10 µM and was diluted 3-fold to obtain 9 concentrations, and the final concentration of DMSO was 0.2%. After the cells were cultured in the incubator for another 5 days, the cell viability was tested using a CTG Cell Viability Detection Reagent; the testing method was consistent with the method provided by the kit. Data were processed using XLFit, and IC50 was calculated. [formula] X: the logarithm of the compound concentration; Y: % inhibition. Table 10. The IC50 (nM) of a compound of the present disclosure against A549

[5] = tested on: Human prostate cancer cells (22RV1); assay: Inhibitory activity against human prostate cancer cells (22RV1), CTG cell viability; conditions: 5 days with compound
Procedure: as §2, with “prostate” for “non-small cell lung”, “(22RV1)” for “(A549)”, “RPMI 1640” for “F12K”, “500” for “300”, “12.” for “10.”, “22RV1” for “A549”

[6] = tested on: Human breast cancer cells (SUM-149PT); assay: Inhibitory activity against human breast cancer cells (SUM-149PT), CTG cell viability; conditions: 5 days with compound
Procedure: as §1, with “cells (SUM-149PT)” for “cells (MDA-MB-231)”, “of 800” for “of 600”, “another 5” for “another 7”, “Table 14.” for “Table 8.”, “against SUM-149PT” for “against MDA-MB-231”

SMILES | IC50 [1] | IC50 ([2]; Homo sapiens, 168 h) | other results
CC(=O)c1c(C)c2cnc(Nc3ccc(N4CCNCC4)cn3)nc2n(C2CCCC2)c1=O [Palbociclib] |  |  | IC50 (MCF-7/Palbo-R; Homo sapiens, MCF7, 120 h): > 2000 nM
CNC(=O)c1ccc(Nc2ncc(F)c(-c3cc(F)c4nc(C(C)(C)O)n5c4c3OC[C@@H]5C)n2)cc1 [Example 3, (S)-4-((5-Fluoro-4-(8-fluoro-2-(2-hydroxypropan-2-yl)-3-methyl-3,4-dihydro-5-oxa-1,2a-diazaacenaphthylen-6-yl)pyrimidin-2-yl)amino)-N-methylbenzamide] | 197 nM | 172 nM | 
CC(C)n1c(C(C)(C)O)nc2c(F)cc(-c3nc(N[C@@H]4CCOC[C@H]4O)ncc3Cl)cc21 [PF-07220060] |  |  | IC50 [2]: 1590 nM; IC50 [3]: 567 nM; IC50 [4]: 1870 nM; IC50 (MCF-7/Palbo-R): 967 nM
CNS(=O)(=O)c1ccc(Nc2ncc(Cl)c(-c3cc(F)c4nc(C(C)(C)O)n5c4c3OC[C@@H]5C)n2)c(F)c1 [Example 7, (S)-4-((5-Chloro-4-(8-fluoro-2-(2-hydroxypropan-2-yl)-3-methyl-3,4-dihydro-5-oxa-1,2a-diazaacenaphthylen-6-yl)pyrimidin-2-yl)amino)-3-fluoro-N-methylbenzenesulfonamide] | 670 nM | 342 nM | 
COCc1cc(C(=O)Nc2cc([C@H]3CC[C@@H](OC(=O)NC(C)C)C3)[nH]n2)n(C)n1 [PF-07104091, reference compound] |  |  | IC50 [2]: 936 nM; IC50 [3]: 1250 nM; IC50 [4]: 1130 nM; IC50 [5]: 2700 nM; IC50 [6]: 1340 nM; IC50 (MCF-7/Palbo-R): 836 nM

Now from value to molecule, other results behind:

IC50 [1] | IC50 ([2]; Homo sapiens, 168 h) | SMILES | other results
825 nM | 406 nM | COC(C)c1nc2c(F)cc(-c3nc(Nc4ccc(N5CCOCC5=O)cc4F)ncc3F)c3c2n1[C@@H](C)CO3 (stereo partly drawn) [Example 22, 4-(3-Fluoro-4-((5-fluoro-4-((3S)-8-fluoro-2-(1-methoxyethyl)-3-methyl-3,4-dihydro-5-oxa-1,2a-diazaacenaphthylen-6-yl)pyrimidin-2-yl)amino)phenyl)morpholin-3-one] | 
 | 386 nM | C[C@H]1COc2c(-c3nc(Nc4ccc(N5CCNCC5=O)cc4F)ncc3Cl)cc(F)c3nc(C(C)(C)O)n1c23 [Example 23, (S)-1-(4-((5-Chloro-4-(8-fluoro-2-(2-hydroxypropan-2-yl)-3-methyl-3,4-dihydro-5-oxa-1,2a-diazaacenaphthylen-6-yl)pyrimidin-2-yl)amino)3-fluorophenyl)piperazin-2-one] | 
348 nM | 278 nM | C[C@H]1COc2c(-c3nc(Nc4ccc(N5CCOCC5=O)cc4F)ncc3F)cc(F)c3nc(C(C)(C)O)n1c23 [Example 4, (S)-4-(3-Fluoro-4-((5-fluoro-4-(8-fluoro-2-(2-hydroxypropan-2-yl)-3-methyl-3,4-dihydro-5-oxa-1,2a-diazaacenaphthylen-6-yl)pyrimidin-2-yl)amino)phenyl)morpholin-3-one] | 
574 nM | 199 nM | C[C@H]1COc2c(-c3nc(Nc4ccc(N5CCOCC5=O)cc4F)ncc3Cl)cc(F)c3nc(C4(O)CCCC4)n1c23 [Example 44, (S)-4-(4-((5-Chloro-4-(8-fluoro-2-(1-hydroxycyclopentyl)-3-methyl-3,4-dihydro-5-oxa-1,2a-diazaacenaphthylen-6-yl)pyrimidin-2-yl)amino)-3-fluorophenyl)morpholin-3-one] | 
643 nM |  | C[C@H]1COc2c(-c3nc(Nc4ccc(N5CCC(N(C)C)CC5=O)cc4F)ncc3Cl)cc(F)c3nc(C(C)(C)O)n1c23 (stereo partly drawn) [Example 12, 1-(4-((5-Chloro-4-((S)-8-fluoro-2-(2-hydroxypropan-2-yl)-3-methyl-3,4-dihydro-5-oxa-1,2a-diazaacenaphthylen-6-yl)pyrimidin-2-yl)amino)-3-fluorophenyl)-4-(dimethylamino)piperidin-2-one] | 
572 nM | 303 nM | CC(C)c1nc2c(F)cc(-c3nc(Nc4ccc(N5CCOCC5=O)cc4F)ncc3F)c3c2n1[C@@H](C)CO3 [Example 27, (S)-4-(3-Fluoro-4-((5-fluoro-4-(8-fluoro-2-isopropyl-3-methyl-3,4-dihydro-5-oxa-1,2a-diazaacenaphthylen-6-yl)pyrimidin-2-yl)amino)phenyl)morpholin-3-one] | 
